Laboratory results reported in patent US20260041670A1, “DRUGS FOR PREVENTING AND/OR TREATING ALZHEIMER'S DISEASE” (SHENZHEN UNIVERSITY OF ADVANCED TECHNOLOGY, priority 2023, published 2026).
Converted amounts (≈) assume the structure as drawn. Read-outs that look alike come from different tables or passages of the source. One block for each molecule: values may come before it.

Experiments:
[1] = Plasma protein binding (mouse); type: in vitro ADME; details: plasma, read-out: Plasma Protein Binding Fu, plasma
[2] = biological target: hERG (Homo sapiens, UniProt Q12809); assay: hERG inhibition
hERG, sequence (Q12809 whole entry): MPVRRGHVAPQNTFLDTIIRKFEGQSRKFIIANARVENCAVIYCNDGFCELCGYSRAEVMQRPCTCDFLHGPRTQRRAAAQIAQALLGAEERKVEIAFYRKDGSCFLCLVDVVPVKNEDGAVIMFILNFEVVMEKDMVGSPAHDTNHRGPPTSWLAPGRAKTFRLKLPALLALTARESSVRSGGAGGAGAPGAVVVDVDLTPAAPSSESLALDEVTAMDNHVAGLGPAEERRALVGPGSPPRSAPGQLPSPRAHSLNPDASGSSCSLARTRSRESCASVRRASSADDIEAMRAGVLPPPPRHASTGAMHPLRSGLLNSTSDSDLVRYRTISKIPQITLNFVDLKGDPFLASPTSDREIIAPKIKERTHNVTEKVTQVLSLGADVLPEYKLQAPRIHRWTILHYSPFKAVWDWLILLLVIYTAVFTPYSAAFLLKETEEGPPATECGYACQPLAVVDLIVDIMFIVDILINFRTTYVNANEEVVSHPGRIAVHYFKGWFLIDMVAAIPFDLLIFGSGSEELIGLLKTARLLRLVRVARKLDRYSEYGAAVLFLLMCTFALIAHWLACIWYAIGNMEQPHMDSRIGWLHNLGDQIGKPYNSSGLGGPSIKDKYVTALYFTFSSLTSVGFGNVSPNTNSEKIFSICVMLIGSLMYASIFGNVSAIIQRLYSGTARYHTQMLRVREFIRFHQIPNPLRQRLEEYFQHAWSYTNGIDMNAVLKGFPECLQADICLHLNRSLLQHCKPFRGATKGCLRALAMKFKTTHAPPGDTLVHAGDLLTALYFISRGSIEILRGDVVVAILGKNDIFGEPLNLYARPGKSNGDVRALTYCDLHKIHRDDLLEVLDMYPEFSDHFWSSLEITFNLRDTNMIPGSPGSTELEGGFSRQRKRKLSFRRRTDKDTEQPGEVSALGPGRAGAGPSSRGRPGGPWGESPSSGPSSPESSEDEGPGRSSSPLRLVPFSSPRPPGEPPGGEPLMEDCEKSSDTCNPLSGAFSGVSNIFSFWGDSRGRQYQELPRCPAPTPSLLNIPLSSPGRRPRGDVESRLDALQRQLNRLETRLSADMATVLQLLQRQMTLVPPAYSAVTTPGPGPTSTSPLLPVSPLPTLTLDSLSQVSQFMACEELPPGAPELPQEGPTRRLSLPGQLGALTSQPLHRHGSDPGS

[3] = Permeability Caco-2; type: in vitro ADME; details: human, Caco-2
[4] = Permeability PAMPA-BBB; type: in vitro ADME; details: for Papp: PAMPA, read-out: Permeability-PAMPA-BBB Pe
[5] = Stability in microsomes (human); type: in vitro ADME; details: for microsomal CLint / half-life: liver microsomes; for microsomal CLint: read-out: Stability-Microsomes CL; for half-life: read-out: Stability-Microsomes T1/2
[6] = Stability in hepatocytes (human); type: in vitro ADME; details: for hepatocyte CLint / half-life: hepatocytes; for hepatocyte CLint: read-out: Stability-Hepatocytes CL; for half-life: read-out: Stability-Hepatocytes T1/2
[7] = Solubility (pH 7.4; PBS); type: physicochemical
[8] = Stability in plasma (human); type: in vitro ADME; details: for half-life: plasma, read-out: Stability-Plasma T1/2
[9] = Stability in plasma (mouse); type: in vitro ADME; details: for half-life: plasma, read-out: Stability-Plasma T1/2
[10] = Plasma protein binding (human); type: in vitro ADME; details: plasma, read-out: Plasma Protein Binding Fu, plasma
[11] = Stability in hepatocytes (mouse); type: in vitro ADME; details: for hepatocyte CLint / half-life: hepatocytes; for hepatocyte CLint: read-out: Stability-Hepatocytes CL; for half-life: read-out: Stability-Hepatocytes T1/2
[12] = biological target: T1, TrkB (Homo sapiens, UniProt Q16620); assay: Pro-survival MTT assay after staurosporine-induced apoptosis in BR6 and T48 cells; type: cell-based; details: STS 100 nM, 24 h, in words, relative to CF3CN
T1 construct: expressed in transfected cells; host or cells: human SH-SY5Y cells (BR6/Br6) and T48 cells
T1 sequence (Q16620 32-822, species assumed): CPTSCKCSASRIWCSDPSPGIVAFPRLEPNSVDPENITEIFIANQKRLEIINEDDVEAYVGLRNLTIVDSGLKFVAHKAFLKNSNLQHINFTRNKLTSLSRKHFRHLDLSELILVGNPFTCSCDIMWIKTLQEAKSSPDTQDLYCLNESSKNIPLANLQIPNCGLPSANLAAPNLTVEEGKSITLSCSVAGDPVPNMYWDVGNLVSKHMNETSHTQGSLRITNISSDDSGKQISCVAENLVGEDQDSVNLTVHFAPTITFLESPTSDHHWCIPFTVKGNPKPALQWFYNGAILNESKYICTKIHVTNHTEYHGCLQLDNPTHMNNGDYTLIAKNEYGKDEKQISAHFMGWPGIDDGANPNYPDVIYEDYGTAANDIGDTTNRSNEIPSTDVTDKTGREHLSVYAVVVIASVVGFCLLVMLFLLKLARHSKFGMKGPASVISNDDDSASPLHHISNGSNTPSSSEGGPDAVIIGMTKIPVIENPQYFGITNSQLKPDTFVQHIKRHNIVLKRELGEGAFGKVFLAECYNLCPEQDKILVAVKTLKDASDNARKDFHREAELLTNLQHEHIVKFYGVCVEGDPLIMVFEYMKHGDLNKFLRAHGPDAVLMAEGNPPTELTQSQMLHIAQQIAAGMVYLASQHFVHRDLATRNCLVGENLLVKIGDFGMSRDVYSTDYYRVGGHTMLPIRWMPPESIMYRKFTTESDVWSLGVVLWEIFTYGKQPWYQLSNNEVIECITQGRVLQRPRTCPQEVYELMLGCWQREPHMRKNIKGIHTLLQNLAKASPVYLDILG
Procedure: FIG. 1b illustrates EC50 values of CF3CN and derivatives thereof. BR6 and T48 cells are treated with staurosporine (STS) (100 nM) and TrkB agonists. CF3CN and compounds #1-4 are added in a dose-dependent manner at concentrations of 0, 5, 10, 50, 100, 500, and 1,000 nM. After 24 h, an MTT assay is performed, and EC50 values are calculated using Prism software (n=3; data are represented by mean±standard deviation (SD)).
The pro-survival effects of four derivatives were quantitatively analyzed in human SH-SY5Y cells and T48 cells stably transfected with the TrkB. […] As PLCγ1 bound with a p-Y816 residue on the TrkB receptor and was subsequently tyrosine-phosphorylated by active TrkB, a tyrosine phosphorylation signal was also monitored in this example (FIG. 1c).

[13] = Stability in microsomes (mouse); type: in vitro ADME
[14] = system: Aβ42; assay: ELISA of Aβ42 in brain tissues; type: in vivo; details: 3×Tg mice, gavage 3 months
Procedure: FIG. 9i illustrates quantitative analysis of Aβ42 in brain tissues by an enzyme-linked immunosorbent assay (ELISA) (n=3, one-way ANOVA) (data are represented by mean±SD; […], ***p<0.005, ****p≤0.0001).
(§1) To investigate whether long-term chronic treatment with #2-NP alleviates cognitive deficits in 3×Tg AD model mice, mice were administered via gavage with #2 at 3 mg/kg, #2-NP at 3 mg/kg, and #2-NP at 10 mg/kg. […] The recognition index was increased by #2-NP in a dose-dependent manner (FIGS. 9a and b). […] Additionally, quantitative analysis of Aβ PET signals was performed using the specific ligand [18F] […] Collectively, #2-NP decreases cerebral Aβ deposition, reduces brain atrophy, and ameliorates cognitive deficits in 3×Tg mice.

[15] = system: p-TrkB Y816; assay: Immunofluorescent staining of p-TrkB in brain sections; type: in vivo; details: 3×Tg mice, IF staining
Source text: FIG. 11a illustrates immunofluorescent (IF) staining of p-TrkB and microtubule-associated protein 2 (MAP2) in brain tissues of 3×Tg mice, with a scale bar=50 μm.
FIG. 11e illustrates quantification of p-TrkB intensities in the hippocampus (n=6, one-way ANOVA) (data are represented by mean±SD; ns represents no statistically significant difference, *p<0.05, **p<0.01, ***p<0.001).
To further analyze the therapeutic effects of #2-NP against AD pathology, immunofluorescent (IF) staining of p-TrkB was performed on brain sections from drug-treated 3×Tg mice. […] Consequently, p-AEP IF signals were closely correlated with the upstream p-TrkB activity (FIGS. 11b & f). Simultaneously, active AEP IF staining was inversely coupled with the p-AEP activity, thereby leading to a progressive decline in APP C585 levels. Consistent with these findings, Tau N368 signals and AT8 IF intensity were closely correlated with each other (FIGS. 7C & D). Quantitative analysis of the fluorescence intensity confirmed these observations (FIGS. 11g-j).

[16] = system: 3×Tg mice; assay: MRI cerebral cortex volume; type: in vivo; details: gavage 3 months
Procedure: FIG. 9c illustrates representative T2-weighted magnetic resonance imaging (MRI) scanning images of 3×Tg mice, with cortical regions of interest (ROI) marked by red lines.
FIG. 9d illustrates a quantified cerebral cortex volume of ROI (n=3, one-way ANOVA).
as §1

[17] = system: 3×Tg mice; assay: Novel object recognition (NOR) test after 3 months treatment; type: in vivo; details: gavage 3 months, #2 3 mg/kg, #2-NP 3 and 10 mg/kg
Procedure: FIG. 9a illustrates representative movement trajectories in a novel object recognition (NOR) test for 3×Tg mice from a Vehicle group, a #2 3 mg/kg group, a #2-NP 3 mg/kg group, and a #2-NP 10 mg/kg group.
FIG. 9b illustrates statistical analysis of recognition indexes of different groups (n=6, one-way ANOVA).
as §1

[18] = system: Aβ; assay: IHC staining of Aβ in brain sections; type: in vivo; details: 3×Tg mice, gavage 3 months
Procedure: FIG. 9e illustrates immunohistochemical (IHC) staining of Aβ in brain sections of 3×Tg mice, with a scale bar=50 μm.
FIG. 9f illustrates a quantitative diagram of FIG. 9e (n=6, one-way ANOVA).
as §1

[19] = in vivo; details: ICR, mouse
Procedure: (§2) FIG. 6b illustrates plasma concentrations following administration of #2 or #2-NP. ICR mice are divided into four groups, which are administered with #2 at 2 mg/kg (intravenous injection, IV), #2 at 5 mg/kg (oral administration, PO), #2-NP at 5 mg/kg (PO), and #2-NP at 10 mg/kg (PO). Blood samples are collected from all three mice of each group at corresponding time points, and concentrations of #2 are quantitatively analyzed by a liquid chromatography-tandem mass spectrometry (LC-MS/MS). Cmax: maximum plasma concentration; Tmax: time to maximum concentration; T½: terminal elimination half-life; AUC: area under curves; MRT: mean residence time; CL: clearance; and F: relative oral bioavailability.
(§3) FIG. 13a illustrates plasma concentrations and PK parameters of #2 quantitatively analyzed by LC-MS/MS after IG administration of #2, #2-NP, and #2-LIP at 5 mg/kg, as well as IN administration of #2 and #2-LIP at 5 mg/kg (n=3; data are represented by mean±SD).
(§4) FIG. 13b illustrates brain concentrations and PK parameters of #2 quantitatively analyzed by LC-MS/MS after IG administration of #2, #2-NP, and #2-LIP at 5 mg/kg, as well as IN administration of #2 and #2-LIP at 5 mg/kg (n=3; data are represented by mean±SD).
(§5) To investigate the in vivo PK profile of #2-NP, lyophilized #2-NP powder was redissolved. […] For quantitative comparison of the effects of the nanoparticle system in delivering #2 to the blood circulation system and brain tissues, PK studies were performed in 2-month-old ICR mice.

[20] = ICR, mouse, in vivo
Procedure: as §2, §3, §4, §5

[21] = system: plasma proteins; assay: Plasma protein binding (mouse); type: in vitro ADME
[22] = system: Caco-2 cells; assay: Permeability Caco-2; type: in vitro ADME
[23] = In vivo PK (plasma and brain, LC-MS/MS) in ICR mice; details: Table 1; dose and route not stated there
[24] = cited from earlier work
[25] = system: plasma proteins; assay: Plasma protein binding (human); type: in vitro ADME

Structure (SMILES): NCc1ccc(-c2cc(=O)c3ccc4nc(C(F)(F)F)[nH]c4c3o2)cc1 [#1]
pro-survival EC50 [12]: excessively high

Structure (SMILES): N#Cc1ccc(-c2cc(=O)c3ccc4[nH]c(C(F)(F)F)nc4c3o2)cc1 [CF3CN, reference compound]
Stability-Microsomes CL [13]: <12.8(mouse) μL/min/mg
Stability-Microsomes T1/2 [13]: >180(mouse) min
Plasma Protein Binding Fu, plasma [21]: 3.55% (mouse)
IC50 [2]: > 25 µM
Caco-2 Efflux Ratio [22]: 3.6
Permeability-Caco-2 Papp (b-a) ([22]; b-a): 42.6 (b-a) 10 cm/s
Permeability-PAMPA-BBB Pe [4]: 3.09 10 cm/s
Stability-Microsomes CL [5]: <12.8(human); μL/min/mg
Stability-Microsomes T1/2 [5]: >180(human); min
Stability-Hepatocytes T1/2 [6]: >480 (human) min
solubility [7]: >200 µM
Stability-Plasma T1/2 [8]: >480 (human) min
t1/2 [23]: 2.994 ± 1.538 h
B/P Ratio (Brain/Plasma Ratio) ([24]; earlier work on CF3CN): approximately 1%
Stability-Plasma T1/2 [9]: >480 (mouse); min
Plasma Protein Binding Fu, plasma [25]: 0.101% (human);
Stability-Hepatocytes T1/2 [11]: >480 (mouse); min

Structure (SMILES): O=c1cc(-c2ccccc2)oc2c(O)c(O)ccc12 [7,8-DHF, 7,8-dihydroxyflavone]
oral bioavailability ([24]; earlier work on 7,8-DHF): approximately 4.6%

Continued, in another order:

fraction unbound [1]: 0.005
Papp B→A [3]: 28.7 ×10⁻⁶ cm/s
Papp [4]: 0.815 ×10⁻⁶ cm/s
microsomal CLint [5]: 1.03 µL/min/mg
half-life [5]: 22.5 h
hepatocyte CLint [6]: < 3 µL/min/1e6 cells
half-life [6]: > 8 h
solubility ([7]; aqueous buffer): > 100 µM
half-life [8]: > 8 h
half-life [9]: > 8 h
fraction unbound [10]: 0.002
hepatocyte CLint [11]: < 3 µL/min/1e6 cells
half-life [11]: > 8 h
Structure (SMILES): CNC(=O)c1ccc(-c2cc(=O)c3ccc4nc(C(F)(F)F)[nH]c4c3o2)cc1 [#3]
IC50 [2]: > 10 µM

microsomal CLint ([13]; liver microsomes, read-out: Stability-Microsomes CL): 10.5 µL/min/mg
half-life ([13]; liver microsomes, read-out: Stability-Microsomes T1/2): 2.22 h
fraction unbound [1]: 0.012
efflux ratio [3]: 193
Papp A→B ([3]; a-b): 0.0175 ×10⁻⁶ cm/s
Papp B→A [3]: 13.9 ×10⁻⁶ cm/s
Papp [4]: 0.135 ×10⁻⁶ cm/s
microsomal CLint [5]: 2.32 µL/min/mg
half-life [5]: 9.97 h
hepatocyte CLint [6]: < 3 µL/min/1e6 cells
half-life [6]: > 8 h
solubility ([7]; aqueous buffer): 50 µM (≈ 18.7 µg/mL)
half-life [8]: > 8 h
half-life [9]: > 8 h
fraction unbound [10]: 0.046
Kp [19]: ~0.1
Cmax ([19]; 5 mg/kg, maximum plasma concentration (Cmax)): 947 ng/mL
AUC ([19]; inhaled or intranasal, 5 mg/kg): 1900 ng·h/mL
MRT ([19]; inhaled or intranasal, 5 mg/kg): 2.11 h
bioavailability ([19]; inhaled or intranasal, 5 mg/kg): 34.3%
half-life ([19]; inhaled or intranasal, 5 mg/kg, elimination half-life): 1.54 h
Cmax ([19]; inhaled or intranasal, 5 mg/kg, maximum plasma concentration (Cmax)): 947 ng/mL
AUC ([19]; iv, 2 mg/kg): 2320 ng·h/mL
half-life ([19]; iv, 2 mg/kg, brain t1/2): 1.41 h
half-life ([19]; iv, 2 mg/kg, plasma half-life (t½)): 0.84 h
half-life ([19]; iv, half-life in the brain): 3.49 h
AUC ([19]; po, 5 mg/kg): 405 ng·h/mL
Cmax ([19]; po, 5 mg/kg, Cmax): 90.8 ng/mL
half-life ([19]; po, 5 mg/kg, brain t1/2): 3.49 h
half-life ([19]; po, 5 mg/kg, half-life in the brain): 2.39 h
Cmax ([19]; po, 5 mg/kg, maximum plasma concentration (Cmax)): 90.8 ng/mL
half-life ([19]; po, 5 mg/kg, plasma half-life (t½)): ~4.09 h
half-life ([19]; t1/2): 4.09 ± 2.65 h
hepatocyte CLint [11]: < 3 µL/min/1e6 cells
half-life [11]: > 8 h
brain AUC ([20]; 5 mg/kg): 78.34 ng·h/mL
plasma Cmax, IN versus PO administration ([20]; 5 mg/kg): approximately 10 fold
clearance (CL) ([20]; inhaled or intranasal, 5 mg/kg): 43.95 mL/min/kg
brain maximum concentration ([20]; iv): 18.47 ng/g
brain AUC ([20]; iv, 2 mg/kg): 84.26 ng·h/mL
brain Cmax ([20]; iv, 2 mg/kg): 164.38 ng/g
brain maximum concentration ([20]; po): 27.663 ng/g
brain AUC ([20]; po, 5 mg/kg): 35.75 ng·h/mL
brain Cmax ([20]; po, 5 mg/kg): 18.47 ng/g
clearance ([20]; po, 5 mg/kg): 223 mL/min/kg
Structure (SMILES): CNCc1ccc(-c2cc(=O)c3ccc4nc(C(F)(F)F)[nH]c4c3o2)cc1 [#2]
IC50 [2]: > 10 µM
Aβ42 content [14]: significantly decreased
p-TrkB Y816 in the hippocampus [15]: significant activation
cerebral cortex volume compared to the Vehicle group [16]: elevation trend without statistical significance
cognitive function in NOR test (recognition index) [17]: failed to improve
Aβ aggregation in the hippocampus [18]: significantly reduced
pro-survival EC50 [12]: comparable

fraction unbound [1]: 0.009
Papp B→A [3]: 45.9 ×10⁻⁶ cm/s
Papp [4]: 1.27 ×10⁻⁶ cm/s
hepatocyte CLint [6]: < 3 µL/min/1e6 cells
half-life [6]: > 8 h
solubility ([7]; aqueous buffer): > 100 µM
half-life [8]: > 8 h
half-life [9]: > 8 h
fraction unbound [10]: 0.004
hepatocyte CLint [11]: < 3 µL/min/1e6 cells
half-life [11]: > 8 h
Structure (SMILES): CN(C)C(=O)c1ccc(-c2cc(=O)c3ccc4nc(C(F)(F)F)[nH]c4c3o2)cc1 [#4]
IC50 [2]: > 10 µM
pro-survival EC50 [12]: comparable
